In the supplement of paper PMC6045584:
± gives the standard deviation of the averaged measurements.

compound: CS(=O)(=O)CCNCc1ccc(-c2ccc3ncnc(Nc4ccc(OCc5cccc(F)c5)c(Cl)c4)c3c2)o1 [LAPATINIB]; test: surviving fraction relative to DMSO-only wells; higher = less growth inhibition; settings: 50 nM; exposure time: 5 days
In short: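 Viability was determined by CellTiter-Glo luminescence, expressed as surviving fraction normalised to the median of DMSO-only wells. The cells were log-phase tumour cell lines seeded at 250–500 per well in 384-well plates and, after 24 hours, exposed continuously for five days to inhibitors at 0.5, 1, 5, 10, 50, 100, 500 and 1000 nM. Three screens per line were run, keeping only lines with replicate Pearson r >0.7 and median Z' >0.3.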

Test System | surviving fraction
SUM149.B1*.S BREAST | 0.995 ± 0.06
93VU HEADNECK | 0.806 ± 0.021
LM7 BONE | 0.99 ± 0.057
143B BONE | 1.01 ± 0.013
SUM159 BREAST | 1.06 ± 0.029
SUM149 BREAST | 0.741 ± 0.046
MDAMB361 BREAST | 0.864 ± 0.028
SAOS2 BONE | 1.18 ± 0.065
ASKA SYNOVIAL | 1.21 ± 0.092
HCC1395 BREAST | 0.919 ± 0.12
HCC1954 BREAST | 0.823 ± 0.037
CME SYNOVIAL | 1.26 ± 0.096
VCAP PROSTATE | 0.957 ± 0.07
YAMATO SYNOVIAL | 1.25 ± 0.16
HCC202 BREAST | 0.905 ± 0.14
HELA CERVIX | 1.1 ± 0.029
SG27 HEADNECK | 0.977 ± 0.14
CAL72 BONE | 1.11 ± 0.015
MDAMB134 BREAST | 1.04 ± 0.19
C33A CERVIX | 0.887 ± 0.037

Test System | surviving fraction
SKBR3 BREAST | 0.697 ± 0.026
MHM BONE | 1.02 ± 0.027
VP229 BREAST | 1.04 ± 0.11
SYO1 SYNOVIAL | 0.938 ± 0.033
ZR751 BREAST | 0.816 ± 0.069
KPD BONE | 1.09 ± 0.06
SIHA CERVIX | 1.03 ± 0.031
DU4475 BREAST | 1.07 ± 0.12
BT549 BREAST | 1.07 ± 0.1
COLO320DM LARGE INTESTINE | 1.06 ± 0.015
T47D BREAST | 1.01 ± 0.019
H23 LUNG | 0.861 ± 0.039
NCIH441 LUNG | 1.03 ± 0.053
HCT15 LARGE INTESTINE | 0.988 ± 0.078
SCC90 HEADNECK | 0.845 ± 0.037
MDAMB453 BREAST | 0.993 ± 0.026
MG63 BONE | 1.04 ± 0.039
A549 LUNG | 1.02 ± 0.043
MDAMB468 BREAST | 1.086 ± 0.01

same assay, conditions: 100 nM; exposure time: 5 days

Test System | surviving fraction
SUM149.B1*.S BREAST | 1.07 ± 0.057
93VU HEADNECK | 0.827 ± 0.045
LM7 BONE | 1.06 ± 0.02
143B BONE | 1.08 ± 0.11
SUM159 BREAST | 1.1 ± 0.036
SUM149 BREAST | 0.656 ± 0.019
MDAMB361 BREAST | 0.711 ± 0.041
SAOS2 BONE | 1.24 ± 0.099
ASKA SYNOVIAL | 1.19 ± 0.069
HCC1395 BREAST | 1.09 ± 0.061
HCC1954 BREAST | 0.804 ± 0.092
CME SYNOVIAL | 1.35 ± 0.19
VCAP PROSTATE | 0.901 ± 0.1
YAMATO SYNOVIAL | 1.31 ± 0.022
HCC202 BREAST | 0.726 ± 0.31
HELA CERVIX | 1.15 ± 0.12
SG27 HEADNECK | 1.04 ± 0.067
CAL72 BONE | 1.12 ± 0.096
MDAMB134 BREAST | 0.966 ± 0.083
C33A CERVIX | 0.859 ± 0.017

Test System | surviving fraction
SKBR3 BREAST | 0.508 ± 0.03
MHM BONE | 1.02 ± 0.014
VP229 BREAST | 0.92 ± 0.058
SYO1 SYNOVIAL | 0.976 ± 0.032
ZR751 BREAST | 0.785 ± 0.031
KPD BONE | 1.08 ± 0.066
SIHA CERVIX | 1.02 ± 0.086
DU4475 BREAST | 0.957 ± 0.11
BT549 BREAST | 1.03 ± 0.054
COLO320DM LARGE INTESTINE | 1.15 ± 0.083
T47D BREAST | 1.04 ± 0.05
H23 LUNG | 0.834 ± 0.031
NCIH441 LUNG | 1.09 ± 0.043
HCT15 LARGE INTESTINE | 1.08 ± 0.07
SCC90 HEADNECK | 0.802 ± 0.067
MDAMB453 BREAST | 1.04 ± 0.018
MG63 BONE | 1.08 ± 0.023
A549 LUNG | 1.06 ± 0.05
MDAMB468 BREAST | 1.1 ± 0.051

same assay, conditions: 500 nM; exposure time: 5 days

Test System | surviving fraction
SUM149.B1*.S BREAST | 1.09 ± 0.035
93VU HEADNECK | 0.493 ± 0.039
LM7 BONE | 0.991 ± 0.022
143B BONE | 1.02 ± 0.016
SUM159 BREAST | 1.043 ± 0.01
SUM149 BREAST | 0.492 ± 0.018
MDAMB361 BREAST | 0.724 ± 0.096
SAOS2 BONE | 1.21 ± 0.11
ASKA SYNOVIAL | 1.16 ± 0.1
HCC1395 BREAST | 1.02 ± 0.083
HCC1954 BREAST | 0.387 ± 0.016
CME SYNOVIAL | 1.2 ± 0.059
VCAP PROSTATE | 0.839 ± 0.035
YAMATO SYNOVIAL | 1.21 ± 0.16
HCC202 BREAST | 0.383
HELA CERVIX | 1.16 ± 0.09
SG27 HEADNECK | 0.988 ± 0.026
CAL72 BONE | 1.02 ± 0.077
MDAMB134 BREAST | 0.956 ± 0.071
C33A CERVIX | 0.62 ± 0.014

Test System | surviving fraction
SKBR3 BREAST | 0.233 ± 0.014
MHM BONE | 0.992 ± 0.033
VP229 BREAST | 0.626 ± 0.019
SYO1 SYNOVIAL | 0.966 ± 0.026
ZR751 BREAST | 0.662 ± 0.038
KPD BONE | 0.956 ± 0.08
SIHA CERVIX | 1.05 ± 0.06
DU4475 BREAST | 1.14 ± 0.11
BT549 BREAST | 1.15 ± 0.14
COLO320DM LARGE INTESTINE | 1.1 ± 0.05
T47D BREAST | 1 ± 0.041
H23 LUNG | 0.4077 ± 0.0038
NCIH441 LUNG | 1 ± 0.061
HCT15 LARGE INTESTINE | 1.04 ± 0.032
SCC90 HEADNECK | 0.532 ± 0.015
MDAMB453 BREAST | 0.868 ± 0.043
MG63 BONE | 1.09 ± 0.017
A549 LUNG | 1 ± 0.041
MDAMB468 BREAST | 0.948 ± 0.043

same assay, conditions: 1000 nM; exposure time: 5 days

Test System | surviving fraction
SUM149.B1*.S BREAST | 1.05 ± 0.038
93VU HEADNECK | 0.438 ± 0.041
LM7 BONE | 0.955 ± 0.041
143B BONE | 1.01 ± 0.021
SUM159 BREAST | 1.03 ± 0.013
SUM149 BREAST | 0.424 ± 0.047
MDAMB361 BREAST | 0.672 ± 0.069
SAOS2 BONE | 1.15 ± 0.22
ASKA SYNOVIAL | 1.15 ± 0.068
HCC1395 BREAST | 0.993 ± 0.15
HCC1954 BREAST | 0.387 ± 0.039
CME SYNOVIAL | 1.14 ± 0.16
VCAP PROSTATE | 0.956 ± 0.073
YAMATO SYNOVIAL | 1.13 ± 0.045
HCC202 BREAST | 0.221 ± 0.029
HELA CERVIX | 1.16 ± 0.037
SG27 HEADNECK | 1.06 ± 0.06
CAL72 BONE | 0.951 ± 0.17
MDAMB134 BREAST | 0.806 ± 0.062
C33A CERVIX | 0.537 ± 0.017

Test System | surviving fraction
SKBR3 BREAST | 0.171 ± 0.021
MHM BONE | 1.01 ± 0.024
VP229 BREAST | 0.436 ± 0.087
SYO1 SYNOVIAL | 0.975 ± 0.021
ZR751 BREAST | 0.746 ± 0.062
KPD BONE | 0.951 ± 0.094
SIHA CERVIX | 1.1 ± 0.042
DU4475 BREAST | 0.932 ± 0.025
BT549 BREAST | 0.977 ± 0.085
COLO320DM LARGE INTESTINE | 1.12 ± 0.075
T47D BREAST | 1.01 ± 0.017
H23 LUNG | 0.367 ± 0.023
NCIH441 LUNG | 1.18 ± 0.054
HCT15 LARGE INTESTINE | 1.05 ± 0.071
SCC90 HEADNECK | 0.508 ± 0.023
MDAMB453 BREAST | 0.752 ± 0.024
MG63 BONE | 1.11 ± 0.038
A549 LUNG | 1.02 ± 0.036
MDAMB468 BREAST | 0.785 ± 0.058
